System: histamine-induced nasal congestion model
Assay: Histamine-induced nasal congestion model in dogs, oral administration
Assay type: in vivo, Beagle dogs
Procedure: A histamine-induced nasal congestion model in dogs was performed according to the standard procedure [Tiniakov R. L., Tiniakova O. P., McLeod R. L., Hey J. A., Yeates D. B. Canine model of nasal congestion and allergic rhinitis//J Appl Physiol. 2003. V.94(5). P.1821-1828]. Beagle dogs were injected in the nasal cavity with a 5% histamine solution in a volume of 250 μl/nostril. The volume of the nasal cavity of the right and left nostrils was measured using a rhinometer before and 5, 10, 15, 20, 30, 40, 50 and 60 minutes after administration of histamine. Three experiments were performed, in which Compound I was administered orally once at different times: 1) 30 minutes before administration of histamine; 2) 1 hour before administration of histamine; and 3) 6 hours before administration of histamine, and one experiment was performed, in which Compound I was administered orally once daily for 14 days, the last administration was carried out 1 hour before administration of histamine.

[1] = oral 6 hours before histamine, 0.54 mg/kg, 40 minutes after histamine
[2] = oral 6 hours before histamine, 0.54 mg/kg, 50 minutes after histamine
[3] = oral 6 hours before histamine, 0.54 mg/kg, 60 minutes after histamine
[4] = oral 6 hours before histamine, 0.54 mg/kg, before histamine administration
[5] = oral for 14 days, 0.13 mg/kg, 5 minutes after histamine
[6] = oral for 14 days, 0.13 mg/kg, 10 minutes after histamine
[7] = oral for 14 days, 0.13 mg/kg, 15 minutes after histamine
[8] = oral for 14 days, 0.13 mg/kg, 20 minutes after histamine
[9] = oral for 14 days, 0.13 mg/kg, 30 minutes after histamine
[10] = oral for 14 days, 0.13 mg/kg, 40 minutes after histamine
[11] = oral for 14 days, 0.13 mg/kg, before histamine administration
[12] = oral for 14 days, 0.27 mg/kg, 5 minutes after histamine
[13] = oral for 14 days, 0.27 mg/kg, 10 minutes after histamine
[14] = oral for 14 days, 0.27 mg/kg, 15 minutes after histamine
[15] = oral for 14 days, 0.27 mg/kg, 20 minutes after histamine
[16] = oral for 14 days, 0.27 mg/kg, 30 minutes after histamine
[17] = oral for 14 days, 0.27 mg/kg, 40 minutes after histamine
[18] = oral for 14 days, 0.27 mg/kg, before histamine administration
[19] = oral for 14 days, 0.54 mg/kg, 5 minutes after histamine
[20] = oral for 14 days, 0.54 mg/kg, 10 minutes after histamine
[21] = oral for 14 days, 0.54 mg/kg, 15 minutes after histamine
[22] = oral for 14 days, 0.54 mg/kg, 20 minutes after histamine
[23] = oral for 14 days, 0.54 mg/kg, before histamine administration
[24] = oral once 30 minutes before histamine, 0.005 mg/kg, 5 minutes after histamine
[25] = oral once 30 minutes before histamine, 0.005 mg/kg, 10 minutes after histamine
[26] = oral once 30 minutes before histamine, 0.005 mg/kg, 15 minutes after histamine
[27] = oral once 30 minutes before histamine, 0.005 mg/kg, 20 minutes after histamine
[28] = oral once 30 minutes before histamine, 0.005 mg/kg, 30 minutes after histamine
[29] = oral once 30 minutes before histamine, 0.005 mg/kg, 40 minutes after histamine
[30] = oral once 30 minutes before histamine, 0.005 mg/kg, 50 minutes after histamine
[31] = oral once 30 minutes before histamine, 0.005 mg/kg, 60 minutes after histamine
[32] = oral once 30 minutes before histamine, 0.005 mg/kg, before histamine administration
[33] = oral once 30 minutes before histamine, 0.05 mg/kg, 5 minutes after histamine
[34] = oral once 30 minutes before histamine, 0.05 mg/kg, 10 minutes after histamine
[35] = oral once 30 minutes before histamine, 0.05 mg/kg, 15 minutes after histamine
[36] = oral once 30 minutes before histamine, 0.05 mg/kg, 20 minutes after histamine
[37] = oral once 30 minutes before histamine, 0.05 mg/kg, 30 minutes after histamine
[38] = oral once 30 minutes before histamine, 0.05 mg/kg, 40 minutes after histamine
[39] = oral once 30 minutes before histamine, 0.05 mg/kg, 50 minutes after histamine
[40] = oral once 30 minutes before histamine, 0.05 mg/kg, 60 minutes after histamine
[41] = oral once 30 minutes before histamine, 0.05 mg/kg, before histamine administration
[42] = oral once 30 minutes before histamine, 0.54 mg/kg, 5 minutes after histamine
[43] = oral once 30 minutes before histamine, 0.54 mg/kg, 10 minutes after histamine
[44] = oral once 30 minutes before histamine, 0.54 mg/kg, 15 minutes after histamine
[45] = oral once 30 minutes before histamine, 0.54 mg/kg, 20 minutes after histamine
[46] = oral once 30 minutes before histamine, 0.54 mg/kg, 30 minutes after histamine
[47] = oral once 30 minutes before histamine, 0.54 mg/kg, 40 minutes after histamine
[48] = oral once 30 minutes before histamine, 0.54 mg/kg, 50 minutes after histamine
[49] = oral once 30 minutes before histamine, 0.54 mg/kg, 60 minutes after histamine
[50] = oral once 30 minutes before histamine, 0.54 mg/kg, before histamine administration

O=C(CC(=O)NCCc1cnc[nH]1)NCCc1cnc[nH]1 [Compound I, N,N′-bis(2-(1H-imidazol-5-yl)ethyl)malonamide]
Volume of the nasal cavity, left nostril [1]: 3.5 ± 0.1$ cm^3 | Volume of the nasal cavity, right nostril [1]: 3.5 ± 0.1$ cm^3 | Volume of the nasal cavity, left nostril [2]: 2.9 ± 0.1$ cm^3 | Volume of the nasal cavity, right nostril [2]: 2.9 ± 0.2$ cm^3 | Volume of the nasal cavity, left nostril [3]: 2.9 ± 0.1$ cm^3 | Volume of the nasal cavity, right nostril [3]: 3.0 ± 0.1$ cm^3 | Volume of the nasal cavity, left nostril [4]: 4.1 ± 0.2 cm^3 | Volume of the nasal cavity, right nostril [4]: 4.1 ± 0.2 cm^3 | Volume of the nasal cavity, left nostril [5]: 2.7 ± 0.2$ cm^3 | Volume of the nasal cavity, right nostril [5]: 2.7 ± 0.2$ cm^3 | Volume of the nasal cavity, left nostril [6]: 3.2 ± 0.2*$ cm^3 | Volume of the nasal cavity, right nostril [6]: 3.3 ± 0.2*$ cm^3 | Volume of the nasal cavity, left nostril [7]: 2.5 ± 0.2*$ cm^3 | Volume of the nasal cavity, right nostril [7]: 2.5 ± 0.1*$ cm^3 | Volume of the nasal cavity, left nostril [8]: 2.4 ± 0.2*$ cm^3 | Volume of the nasal cavity, right nostril [8]: 2.4 ± 0.2*$ cm^3 | Volume of the nasal cavity, left nostril [9]: 3.2 ± 0.2*$ cm^3 | Volume of the nasal cavity, right nostril [9]: 3.2 ± 0.2*$ cm^3 | Volume of the nasal cavity, left nostril [10]: 3.6 ± 0.2*$ cm^3 | Volume of the nasal cavity, right nostril [10]: 3.6 ± 0.2$ cm^3 | Volume of the nasal cavity, left nostril [11]: 4.5 ± 0.1 cm^3 | Volume of the nasal cavity, right nostril [11]: 4.5 ± 0.1 cm^3 | Volume of the nasal cavity, left nostril [12]: 2.8 ± 0.2$ cm^3 | Volume of the nasal cavity, right nostril [12]: 2.7 ± 0.2$ cm^3 | Volume of the nasal cavity, left nostril [13]: 3.6 ± 0.2*$ cm^3 | Volume of the nasal cavity, right nostril [13]: 3.6 ± 0.2*$ cm^3 | Volume of the nasal cavity, left nostril [14]: 2.8 ± 0.3*$ cm^3 | Volume of the nasal cavity, right nostril [14]: 2.8 ± 0.2*$ cm^3 | Volume of the nasal cavity, left nostril [15]: 2.7 ± 0.1*$ cm^3 | Volume of the nasal cavity, right nostril [15]: 2.7 ± 0.2*$ cm^3 | Volume of the nasal cavity, left nostril [16]: 3.3 ± 0.2*$ cm^3 | Volume of the nasal cavity, right nostril [16]: 3.3 ± 0.1*$ cm^3 | Volume of the nasal cavity, left nostril [17]: 3.8 ± 0.2*$ cm^3 | Volume of the nasal cavity, right nostril [17]: 3.8 ± 0.2*$ cm^3 | Volume of the nasal cavity, left nostril [18]: 4.5 ± 0.2 cm^3 | Volume of the nasal cavity, right nostril [18]: 4.5 ± 0.1 cm^3 | Volume of the nasal cavity, left nostril [19]: 3.1 ± 0.3$ cm^3 | Volume of the nasal cavity, right nostril [19]: 2.7 ± 0.2$ cm^3 | Volume of the nasal cavity, left nostril [20]: 3.4 ± 0.2*$ cm^3 | Volume of the nasal cavity, right nostril [20]: 3.4 ± 0.1*$ cm^3 | Volume of the nasal cavity, left nostril [21]: 2.6 ± 0.1*$ cm^3 | Volume of the nasal cavity, right nostril [21]: 2.6 ± 0.1*$ cm^3 | Volume of the nasal cavity, left nostril [22]: 2.5 ± 0.2*$ cm^3 | Volume of the nasal cavity, right nostril [22]: 2.5 ± 0.2*$ cm^3 | Volume of the nasal cavity, left nostril [23]: 4.4 ± 0.1 cm^3 | Volume of the nasal cavity, right nostril [23]: 4.5 ± 0.1 cm^3 | Volume of the nasal cavity, left nostril [24]: 3.5 ± 0.2$ cm^3 | Volume of the nasal cavity, right nostril [24]: 3.4 ± 0.1$ cm^3 | Volume of the nasal cavity, left nostril [25]: 2.6 ± 0.2$ cm^3 | Volume of the nasal cavity, right nostril [25]: 2.5 ± 0.2$ cm^3 | Volume of the nasal cavity, left nostril [26]: 2.2 ± 0.2$^ cm^3 | Volume of the nasal cavity, right nostril [26]: 2.1 ± 0.2$^ cm^3 | Volume of the nasal cavity, left nostril [27]: 1.9 ± 0.3 cm^3 | Volume of the nasal cavity, right nostril [27]: 2.0 ± 0.2$^ cm^3 | Volume of the nasal cavity, left nostril [28]: 2.5 ± 0.1&$ cm^3 | Volume of the nasal cavity, right nostril [28]: 2.8 ± 0.2&$ cm^3 | Volume of the nasal cavity, left nostril [29]: 3.9 ± 0.1& cm^3 | Volume of the nasal cavity, right nostril [29]: 3.8 ± 0.2& cm^3 | Volume of the nasal cavity, left nostril [30]: 3.9 ± 0.1& cm^3 | Volume of the nasal cavity, right nostril [30]: 4.0 ± 0.2& cm^3 | Volume of the nasal cavity, left nostril [31]: 4.0 ± 0.1 cm^3 | Volume of the nasal cavity, right nostril [31]: 3.5 ± 0.1$ cm^3 | Volume of the nasal cavity, left nostril [32]: 4.3 ± 0.3 cm^3 | Volume of the nasal cavity, right nostril [32]: 4.6 ± 0.3 cm^3 | Volume of the nasal cavity, left nostril [33]: 3.4 ± 0.1$ cm^3 | Volume of the nasal cavity, right nostril [33]: 3.3 ± 0.2$ cm^3 | Volume of the nasal cavity, left nostril [34]: 2.5 ± 0.1$ cm^3 | Volume of the nasal cavity, right nostril [34]: 2.4 ± 0.2$ cm^3 | Volume of the nasal cavity, left nostril [35]: 2.8 ± 0.1&$ cm^3 | Volume of the nasal cavity, right nostril [35]: 2.6 ± 0.2&$ cm^3 | Volume of the nasal cavity, left nostril [36]: 3.3 ± 0.1&$ cm^3 | Volume of the nasal cavity, right nostril [36]: 3.3 ± 0.3&$ cm^3 | Volume of the nasal cavity, left nostril [37]: 4.1 ± 0.1& cm^3 | Volume of the nasal cavity, right nostril [37]: 3.8 ± 0.1& cm^3 | Volume of the nasal cavity, left nostril [38]: 4.2 ± 0.3& cm^3 | Volume of the nasal cavity, right nostril [38]: 4.2 ± 0.2& cm^3 | Volume of the nasal cavity, left nostril [39]: 4.2 ± 0.1& cm^3 | Volume of the nasal cavity, right nostril [39]: 4.5 ± 0.1& cm^3 | Volume of the nasal cavity, left nostril [40]: 4.3 ± 0.1 cm^3 | Volume of the nasal cavity, right nostril [40]: 4.5 ± 0.3 cm^3 | Volume of the nasal cavity, left nostril [41]: 4.3 ± 0.2 cm^3 | Volume of the nasal cavity, right nostril [41]: 4.2 ± 0.2 cm^3 | Volume of the nasal cavity, left nostril [42]: 2.9 ± 0.1$ cm^3 | Volume of the nasal cavity, right nostril [42]: 3.0 ± 0.2$ cm^3 | Volume of the nasal cavity, left nostril [43]: 2.6 ± 0.1$ cm^3 | Volume of the nasal cavity, right nostril [43]: 2.5 ± 0.1$ cm^3 | Volume of the nasal cavity, left nostril [44]: 3.7 ± 0.3&$ cm^3 | Volume of the nasal cavity, right nostril [44]: 3.8 ± 0.1&$ cm^3 | Volume of the nasal cavity, left nostril [45]: 3.8 ± 0.2& cm^3 | Volume of the nasal cavity, right nostril [45]: 3.7 ± 0.1&$ cm^3 | Volume of the nasal cavity, left nostril [46]: 3.8 ± 0.1&$ cm^3 | Volume of the nasal cavity, right nostril [46]: 3.8 ± 0.2&$ cm^3 | Volume of the nasal cavity, left nostril [47]: 4.2 ± 0.3& cm^3 | Volume of the nasal cavity, right nostril [47]: 4.2 ± 0.3& cm^3 | Volume of the nasal cavity, left nostril [48]: 3.9 ± 0.2$ cm^3 | Volume of the nasal cavity, right nostril [48]: 4.0 ± 0.3^ cm^3 | Volume of the nasal cavity, left nostril [49]: 4.0 ± 0.1$ cm^3 | Volume of the nasal cavity, right nostril [49]: 4.2 ± 0.3 cm^3 | Volume of the nasal cavity, left nostril [50]: 4.5 ± 0.1 cm^3 | Volume of the nasal cavity, right nostril [50]: 4.5 ± 0.3 cm^3 | Tolerance (oral once daily for 14 days, dogs): not generated | duration of the effect (single oral administration, dogs): at least 6 hours

Reference: patent US11571411B2, “Use of a bisamide derivative of malonic acid for treating allergic and other diseases in humans and animals” (PHARMENTERPRISES ALLERGY LLC, priority 2018, dated 2023)
